Source: ChEMBL document CHEMBL4613232, “Novel 3,3-disubstituted oxindole derivatives. Synthesis and evaluation of the anti-proliferative activity” (Bioorg Med Chem Lett, 2020)

Assays:
PC-3 = assay: Antiproliferative activity against human PC3 cells; type: functional, cell-based
MIA PaCa-2 = assay: Antiproliferative activity against human MIAPaCa2 cells; type: functional, cell-based
SW-620 = assay: Antiproliferative activity against human SW620 cells; type: functional, cell-based
MCF7 = assay: Antiproliferative activity against human MCF7 cells; type: functional, cell-based
A-375 = assay: Antiproliferative activity against human A375 cells; type: functional, cell-based
PBMC = assay: Cytotoxicity against human PBMC assessed as reduction in cell viability; type: cell-based

| Structure (SMILES) | IC50 (PC-3) [µM] | IC50 (MIA PaCa-2) [µM] | IC50 (SW-620) [µM] | IC50 (MCF7) [µM] | IC50 (A-375) [µM] | IC50 (PBMC) [µM] | Activity (MIA PaCa-2) | Activity (SW-620) |
| --- | --- | --- | --- | --- | --- | --- | --- | --- |
| CCCC1(NC(=O)OC)C(=O)Nc2ccccc21 (centres undefined) |  |  | > 50 | > 50 | > 50 | > 100 |  |  |
| CCOC(=O)N1C(=O)C(Cc2ccccc2)(NC=O)c2cc(Br)ccc21 (centres undefined) | 32.5 | > 50 | > 50 | > 50 | > 50 | > 100 |  |  |
| CCOC(=O)CC1(NC=O)C(=O)N(C(C)=O)c2ccccc21 (centres undefined) | 17 | > 50 | > 50 | 30.4 | > 50 | > 100 |  |  |
| O=C(NC1(Cc2ccccc2)C(=O)Nc2ccc(Br)cc21)c1ccccc1 (centres undefined) | > 50 | > 50 | > 50 | > 50 | > 50 | > 100 |  |  |
| CC(=O)N1C(=O)C(Cc2ccccc2)(NC=O)c2ccccc21 (centres undefined) | 18.2 | 47 | > 50 | 14.4 | > 50 | 45.5 |  |  |

Further lines, with some results ahead:

| IC50 (PC-3) [µM] | IC50 (MIA PaCa-2) [µM] | IC50 (SW-620) [µM] | IC50 (MCF7) [µM] | IC50 (A-375) [µM] | Structure (SMILES) | IC50 (PBMC) [µM] | Activity (MIA PaCa-2) | Activity (SW-620) |
| --- | --- | --- | --- | --- | --- | --- | --- | --- |
| > 50 | > 50 | > 50 | > 50 | > 50 | NC1(Cc2ccccc2)C(=O)Nc2ccc(Br)cc21 (centres undefined) | > 100 |  |  |
| > 50 | 43.1 | 37.1 | > 50 | > 50 | NC1(Cc2ccccc2)C(=O)Nc2ccccc21 (centres undefined) | > 100 |  |  |
| 8.95 | 7.46 | 9.81 | 17.7 | 6.41 | O=CNC1(Cc2ccccc2)C(=O)Nc2ccc(Br)cc21 (centres undefined) | 75.3 |  |  |
| > 50 | 30.2 | 27.7 | > 50 | > 50 | CCOP(=O)(NC1(Cc2ccccc2)C(=O)Nc2ccc(Br)cc21)OCC (centres undefined) | 51.8 | Dose-dependent effect | Dose-dependent effect |
